# Laboratory results published in US20020107197A1, “Ligands for G protein coupled receptors and methods of using them” (priority 2000, published 2002).
# Tests used:
# GPR4 [1] = molecular target: T1, GPR4 (Homo sapiens, UniProt P46093); assay: Radioligand binding to homogenates of GPR4-transfected CHO cells; details: cold competitors, GPR4-transfected CHO cell homogenates
# T1 construct: were used to generate full length GPR4, which was digested with EcoRI and Xba I and cloned into the pBs3HA vector; expressed in transfected cells
# Protocol: (§1) To characterize the binding of SPC and LPC to GPR4 and TDAG8, we conducted radioligand binding assays. CHO cells were chosen for GPR4 binding assays, since HEK293 cells express relatively high levels of endogenous GPR4. CHO cells stably transfected with empty vector or GPR4 were serum starved for 20 h, then collected after exposure to 2 mM EDTA in PBS. The pelleted cells were stored at −80° C. until use. Binding assays were performed essentially as described previously (Xu et al. (2000) Nat Cell Biol 2, 261-267), except binding was performed at 4° C. Briefly, frozen cells (10^6 cells/ml) were homogenized in a binding buffer. Assays were performed in 96-well plates in triplicate with 100 μl cell homogenate (equivalent to 10^5 cells/well). Different amounts of [^3H]SPC or [^3H]16:0-LPC were added to the cell homogenates in 50 μl of binding buffer, in the presence or absence of cold SPC or 16:0-LPC, or other competitors. The plates were incubated at 4° C. for 120 min, unless otherwise indicated. Cell-bound [^3H]SPC or [^3H]LPC was collected onto a filter (Printed Filtermat A, Wallac, Gaithersburg, Md.) using an automated cell harvester (HARVESTER 96, Tomtec, Orange, Conn.). Specific binding was calculated by subtraction of nonspecific binding (binding detected in the presence of 100-fold excess unlabeled SPC or 16:0-LPC) from the total binding.
# Cell homogenates were used for binding assays. Binding was conducted at 4° C. for 120 min or as indicated. [^3H]SPC and [^3H]16:0-LPC specifically bound to cell homogenates from GPR4-transfected CHO cells in a time-dependent manner and reached equilibrium after 60 min incubation at 4° C. […] The maximum binding capacities for SPC and 16:0-LPC were 996 fmole/10^5 cells for SPC and 1,528 fmole/10^5 cells for 16:0-LPC. […] Binding assays using [^3H]18:0-LPC gave similar results. We also tested the four glycosphingolipids, Psy, Glu-Sph, Gal-Cer, and Lac-Cer, for their ability to compete for the binding of [^3H]SPC and [^3H]16:0-LPC to GPR4.
# GPR4 [2] = molecular target: T1, GPR4; assay: Single-cell intracellular calcium assay (fura-2) in GPR4-GFP-transfected MCF10A cells; format: cell-based; details: for effect of PAF receptor antagonist on calcium response to LPC or SPC: BN52021 200 μM, WEB-2086 2 μM, WEB-2170 2 μM; for increase in [Ca2+]i in GPR4- vs vector-transfected/parental MCF10A cells: lipid at 1 μM
# Protocol: (§2) Measurement of [Ca^2+]i, was performed as described previously in Xu et al. (2000) Nat Cell Biol 2, 261-267. Briefly, pGPR4-GFP-transfected MCF10A cells were grown in specialized glass-bottom dishes (Bioptech, Inc., Butler, Pa.) and loaded with fura-2 in HEPES buffered saline. Using a dual-wavelength spectrofluorometer (RFK-6002, Photon Technology Int'l, So. Brunswick, N.J.) coupled to an inverted fluorescence microscope (Olympus, IX-70, Lake Success, N.Y.), GFP-positive cells were identified using an excitation wavelength of 488 nm, a dichroic 505 nm long-pass filter and an emitter filter at bandpass of 535 nm (Chroma Technology, Brattleboro, Vt.). Measurements of [Ca^2+]i were performed on individual GPR4-GFP positive cells at excitation wavelengths of 340 and 380 nm and an emission wavelength of 510 nm. Conversion of the 340/380 ratio value into [Ca^2+]i in nM was estimated by comparing the cellular fluorescence ratio with ratios acquired using fura-2 (free acid) in buffers containing known Ca^2+ concentrations. [Ca^2+]i was then calculated as described by Grynkiewicz et al. (1985) J Biol Chem 260, 3440-3450. All calcium assays were performed in the presence of 1 mM EGTA in the assay buffers. Therefore, intracellular calcium release, not calcium influx, was analyzed.
# To test whether GPR4 is a receptor for SPC, MCF10A cells were transiently transfected with pGPR4-GFP.
# The GFP receptor fusion was used to identify positively transfected cells, and single-cell calcium assays were performed as described in our previous studies, such as Xu et al. (2000) Nat Cell Biol 2, 261-267.
# endogenous PAF receptor = molecular target: T2, endogenous PAF receptor (Homo sapiens, UniProt P25105); assay: Calcium assay of the endogenous PAF receptor in MCF10A cells; format: cell-based; details: BN52021 200 μM, WEB-2086 2 μM, WEB-2170 2 μM
# T2 construct: endogenous in cells; host or cells: MCF10A (parental and GPR4-GFP-transfected)
# Protocol: as §2
# Therefore, it is unlikely that the increase in calcium induced by LPC was mediated by a PAF receptor.
# GPR4 [3] = molecular target: T1, GPR4; assay: Internalization of GPR4-GFP in HEK293 cells (confocal microscopy); format: cell-based
# Protocol: pGPR4-GFP stably expressing HEK293 cells were cultured in 6 cm tissue culture dishes in RPMI1640 with 10% FBS. After 16-24 h serum starvation, cells were treated with different lipids at 37° C. for 2 h. Cells were washed with cold PBS and fixed with 4% paraformaldehyde in PBS. The subcellular localization of GPR4-GFP protein was visualized under a Leica TV confocal fluorescence microscope with a 63× oil immersion lens (Wetzler, Heidelberg, Germany). The excitation and emission wavelengths were 488 nm and 515-540 nm, respectively.
# G protein coupled receptors undergo agonist-dependent desensitization and internalization. When HEK293 cells are transfected with the pEGFP-N1 vector, GFP protein is expressed in the cytosol of the cells. The GPR4-GFP and TDAG8-GFP fusion proteins, on the other hand, was expressed only on the plasma membrane.
# GPR4 [4] = molecular target: T1, GPR4; assay: ERK MAP kinase activation (phospho-ERK Western blot) in GPR4-infected Swiss 3T3 cells; format: cell-based; details: GPR4-ires-GFP vs GFP Swiss 3T3 cells; SPC and LPC 100 nM
# Protocol: MAP kinases are key signaling intermediates of DNA synthesis and cell proliferation. Swiss 3T3 cells were infected with MSCV GPR4-ires-GFP or MSCV ires-GFP, and subsequently cells sorted by FACS for positive expression of GFP as described previously (Kabarowski et al. (2000) Proc Natl Acad Sci USA. 97, 12109-12114). Cells were plated in 6-well plates in DMEM containing 5% FBS, serum-starved overnight, and then treated lipids in DMEM for the indicated times. Cells were lysed on ice in RIPA buffer containing 50 mM Tris-HCl, pH 7.5, 1% Nonidet P-40, 0.5% deoxycholate,0.1% SDS, 150 mM NaCl, 2 mM EGTA, 25 mM sodium fluoride, 1 mM sodium orthovanadate, and 1× protease inhibitors (Sigma P8340). Lysates containing equal amounts of protein were separated on 10% SDS-polyacrylamide gels and transferred onto nitrocellulose membranes. Antibodies against phosphorylated ERK1/2 (Cell Signaling Technologies; Beverly, Mass.) were used to probe the membrane and the ECL system (Amersham) was used for detection. To normalize the amounts of protein loaded in each lane, membranes were stripped and re-probed with antibodies against total ERK (Cell Signaling Technologies). In some experiments, cells were pretreated with 100 ng/ml PTX for 12-16 h prior to SPC and LPC stimulation.
# TDAG8 [5] = molecular target: T3, TDAG8 (Homo sapiens, UniProt Q8IYL9); assay: Binding of phospholipids to TDAG8
# T3 construct: expressed in transfected cells
# Protocol: as §1
# Using functional and binding assays, we have identified the ligands for TDAG8.
# TDAG8 [6] = molecular target: T3, TDAG8; assay: TDAG8 receptor internalization; format: cell-based
# Description: G protein coupled receptors undergo agonist-dependent desensitization and internalization.
# GPR4 [7] = molecular target: T1, GPR4; assay: SRE luciferase reporter in GPR4-transfected HEK293 cells; format: cell-based; details: GPR4 cotransfection
# Protocol: The serum-response element (SRE) reporter system is a sensitive assay for receptors of lipid factors (An et al. (1998) J Biol Chem 273, 7906-7910; An et al. (1999) Mol Pharmacol 55, 787-794). The SRE reporter system used herein (pSRE-Luc) was a gift from Dr. Songzhu An (UCSF), or may be purchased from Stratagene (La Jolla, Calif.). Both systems give identical results. HEK293 and HEK293GPR4 cells were cultured in RPMI1640 with 10% FBS in 10 cm dishes to ˜85% confluence. To the cells in each dish, pSRE-Luc (10 μg) was transfected in the presence of 60 μl LipofectAMINE reagent. Cells were seeded in 96-well plates 16 h after transfection, incubated for another 24 h in RPMI1640 with 10% FBS, and starved in serum-free medium for 16 h. SPC (dissolved in PBS to 10 mM) and other lipids (LPCs were dissolved in 70% ethanol. Other lipids were dissolved in PBS, 70-95% ethanol, or 100% MeOH) were diluted in serum free RPMI 1640 and added to the cells, followed by a 10 h incubation. Luciferase activity was measured in Microlite™ 1 plates (DYNEX Technologies, Inc., Virginia) using 60 μl of cell lysate and 20 μl luciferase substrate. PTX (100 ng/ml) was added during the 16 h serum starvation period and pcDNA1-C3 (encoding the C3-exoenzyme, 2 μg) was co-transfected with pSRE-Luc (10 μg). All experiments were performed in quadruplicate and were repeated at least three times. The Student's t test was performed using the GraphPad Instat software (San Diego, Calif.). p<0.05 was considered to be statistically significant.
# T1 sequence (P46093 whole entry): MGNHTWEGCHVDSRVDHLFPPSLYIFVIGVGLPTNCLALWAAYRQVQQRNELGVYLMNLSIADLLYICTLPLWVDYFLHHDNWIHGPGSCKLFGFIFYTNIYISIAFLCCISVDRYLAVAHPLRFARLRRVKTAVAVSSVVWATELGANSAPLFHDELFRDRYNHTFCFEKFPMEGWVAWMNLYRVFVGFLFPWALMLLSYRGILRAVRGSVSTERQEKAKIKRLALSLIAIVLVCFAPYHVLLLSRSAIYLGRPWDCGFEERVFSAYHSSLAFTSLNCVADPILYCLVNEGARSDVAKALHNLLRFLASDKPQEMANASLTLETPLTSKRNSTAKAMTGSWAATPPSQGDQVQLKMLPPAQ
# T2 sequence (P25105 whole entry): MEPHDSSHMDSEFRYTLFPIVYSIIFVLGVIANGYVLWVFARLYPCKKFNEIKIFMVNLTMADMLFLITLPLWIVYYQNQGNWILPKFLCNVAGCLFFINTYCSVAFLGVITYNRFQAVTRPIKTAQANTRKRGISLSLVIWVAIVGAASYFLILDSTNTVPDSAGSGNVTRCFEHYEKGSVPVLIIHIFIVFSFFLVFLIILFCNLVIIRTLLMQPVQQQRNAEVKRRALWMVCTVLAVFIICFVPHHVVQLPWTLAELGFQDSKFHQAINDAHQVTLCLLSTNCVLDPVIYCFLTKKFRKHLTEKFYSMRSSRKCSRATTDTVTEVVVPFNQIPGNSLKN
# T3 sequence (Q8IYL9 whole entry): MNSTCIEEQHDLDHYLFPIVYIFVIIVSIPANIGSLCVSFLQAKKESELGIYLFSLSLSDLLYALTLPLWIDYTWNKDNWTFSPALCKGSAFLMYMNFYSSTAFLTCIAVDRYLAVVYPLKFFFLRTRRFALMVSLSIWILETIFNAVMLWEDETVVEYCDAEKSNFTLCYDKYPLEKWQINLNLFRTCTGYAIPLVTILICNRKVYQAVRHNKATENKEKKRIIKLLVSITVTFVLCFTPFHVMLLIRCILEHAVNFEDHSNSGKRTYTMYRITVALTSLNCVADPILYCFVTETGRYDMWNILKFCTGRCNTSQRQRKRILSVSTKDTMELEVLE
GPR4-dependent ERK activation (in words) (GPR4 [4]),Compound,competition for binding of [3H]SPC and [3H]16:0-LPC to GPR4 (GPR4 [1]),increase in [Ca2+]i in GPR4- vs vector-transfected/parental MCF10A cells (GPR4 [2]),further results
not,"CCCCCCCCCCCCC/C=C/[C@@H](O)[C@@H](N)CO[C@@H]1O[C@H](CO)[C@@H](O)[C@H](O)[C@H]1O [Glu-Sph, glucosyl-β1′1-sphingosine]",None of these glycosphingolipids competed successfully,did not stimulate increases in [Ca^2+]i,–
not,"CCCCCCCCCCCCC/C=C/[C@@H](O)[C@@H](N)CO[C@@H]1O[C@H](CO)[C@H](O)[C@H](O)[C@H]1O [Psy, psychosine]",None of these glycosphingolipids competed successfully,did not stimulate increases in [Ca^2+]i,–

# Second part, the compound before the results:
Compound,GPR4-dependent ERK activation (in words) (GPR4 [4]),competition for binding of [3H]SPC and [3H]16:0-LPC to GPR4 (GPR4 [1]),increase in [Ca2+]i in GPR4- vs vector-transfected/parental MCF10A cells (GPR4 [2]),further results
CCCCCCCCCCCCCCCCCC(=O)OC[C@@H](O)COP(=O)([O-])OCC[N+](C)(C)C [18:0-LPC],–,successfully competed for binding,–,–
CC1C(=O)OC2C(O)C34C5CC(C(C)(C)C)C36C(OC(=O)C6O)OC4(C(=O)O5)C12O (centres unmarked) [BN52021],–,–,–,effect of PAF receptor antagonist on calcium response to LPC or SPC (GPR4 [2]): not affected; effect on calcium signal induced by PAF (100 nM) (endogenous PAF receptor): completely abolished; effect of PAF receptor antagonist on GPR4 internalization induced by SPC or 16:0-LPC (GPR4 [3]): did not block
CCCCCCCCCCCCC/C=C/[C@@H](O)[C@@H](N)COP(=O)([O-])OCC[N+](C)(C)C [D-erythro-SPC],–,–,stereoselectivity of GPR4 favoring D-erythro-SPC,–
CCCCCCCCCCCCC/C=C/[C@@H](O)[C@@H](N)COP(=O)([O-])OCC[N+](C)(C)C [L-threo-SPC],–,–,favoring D-erythro-SPC (the bioactive form of SPC) vs. L-threo-SPC,–
Cc1nnc2n1-c1sc(CCC(=O)N3CCOCC3)cc1C(c1ccccc1Cl)=NC2 [WEB-2086],–,–,–,effect of PAF receptor antagonist on calcium response to LPC or SPC (GPR4 [2]): not affected; effect on calcium signal induced by PAF (100 nM) (endogenous PAF receptor): completely abolished; effect of PAF receptor antagonist on GPR4 internalization induced by SPC or 16:0-LPC (GPR4 [3]): did not affect
Cc1nnc2n1-c1sc3c(c1C(c1ccccc1Cl)=NC2)CC(C(=O)N1CCOCC1)C3 (centres unmarked) [WEB-2170],–,–,–,effect of PAF receptor antagonist on calcium response to LPC or SPC (GPR4 [2]): did not affect; effect of PAF receptor antagonist on calcium response to LPC or SPC (GPR4 [2]; listed as WEB-2071): insensitive; effect on calcium signal induced by PAF (100 nM) (endogenous PAF receptor): completely blocked; effect of PAF receptor antagonist on GPR4 internalization induced by SPC or 16:0-LPC (GPR4 [3]): did not affect
CCCCCCCCCCCCCCCCOC[C@@H](O)COP(=O)([O-])OCC[N+](C)(C)C [lyso-PAF],–,not,–,binding to TDAG8 (TDAG8 [5]): able to bind to TDAG8; TDAG8 receptor internalization (TDAG8 [6]): induced TDAG8 receptor internalization; transcriptional activation of SRE (in words) (GPR4 [7]): none of them induced significant transcriptional activation of SRE
Sphingomyelin [SM (18:0)],–,not,–,transcriptional activation of SRE (in words) (GPR4 [7]): none of them induced significant transcriptional activation of SRE
galactosyl-β1′1-ceramide [Gal-Cer],not,None of these glycosphingolipids competed successfully,induced the same level of increased [Ca^2+]i,–
lactosyl-β1′1-ceramide [Lac-Cer],activation was independent of GPR4 expression,None of these glycosphingolipids competed successfully,did not stimulate increases in [Ca^2+]i,–
lysophosphatidylinositol [LPI(18:0)],–,not,–,–
